Reference: patent US8222273B2, “Polymorphic form of a [1,2,4]triazole[4,3-A] pyridine derivative inflammatory diseases” (Pfizer Limited, priority 2008, dated 2012)

Assays:
Assay type in all cases: physicochemical
Hygroscopicity = assay: Hygroscopicity
[1] = Micronisation by jet milling
[2] = Low energy screen (slurry of form B in solvents, PXRD analysis); settings: slurried for 2 weeks in various solvents (incl. dimethylacetamide, N-methyl-Pyrrolidine, pyridine) at 4° C., room temperature (~22° C.) and 40° C.; analysis after 2 weeks and 4 months
Experimental: A low energy screen was carried using N-[3-tert-butyl-1-(3-chloro-4-hydroxyphenyl)-1H-pyrazol-5-yl]-N′-{2-[(3-{2-[(2-hydroxyethyl)sulfanyl]phenyl}[1,2,4]triazolo[4,3-a]pyridin-6-yl)sulfanyl]benzyl}urea form B to investigate whether it is the lowest energy form of the compound. Samples of form B were slurried for 2 weeks in various solvents at 4° C., room temperature (˜22° C.) and 40° C. Analysis of wet and dried slurries was carried out at after 2 weeks and 4 months using PXRD.

[3] = Hydrate screen (slurry of form B in aqueous pyridine); settings: slurried 2 weeks at 4° C., room temperature (~22° C.) and 40° C. in aqueous pyridine containing 50%, 75% and 90% water
Experimental: A hydrate screen was conducted by slurrying samples of form B for 2 weeks at 4° C., room temperature (˜22° C.) and 40° C. in aqueous pyridine. The three solvent systems selected contained 50%, 75% and 90% water.

[4] = Stability of blend with lactose monohydrate on storage; settings: stored under aggressive conditions of heat and humidity

hygroscopicity (Hygroscopicity): essentially non-hygroscopic
crystalline form after slurrying (PXRD of wet and dried slurries) [2]: remained as Form B
change in crystalline form [3]: No change in crystalline form
hydrated forms observed [3]: No hydrated forms were observed
stability when blended with lactose monohydrate [4]: good stability
SMILES: CC(C)(C)c1cc(NC(=O)NCc2ccccc2Sc2ccc3nnc(-c4ccccc4SCCO)n3c2)n(-c2ccc(O)c(Cl)c2)n1 [form B, N-[3-tert-butyl-1-(3-chloro-4-hydroxyphenyl)-1H-pyrazol-5-yl]-N′-{2-[(3-{2-[(2-hydroxyethyl)sulfanyl]phenyl}[1,2,4]triazolo[4,3-a]pyridin-6-yl)sulfanyl]benzyl}urea]
change in crystalline form on micronisation [1]: without inducing any change in crystalline form
